Earlier results on one compound are cited in publication PMC9851200, “Multiparameter phenotypic screening for endogenous TFEB and TFE3 translocation identifies novel chemical series modulating lysosome function” (Autophagy, 2022).

What all share (design): method as in original PKIS2 published data
Data set [1] deals with kinases (KINOMEscan panel) (Homo sapiens, UniProt Q13523). To be noted: PRPF4B; Published KINOMEscan; ref original PKIS2 published data; cited from earlier work.
For data set [2], the target named is T1, kinases (KINOMEscan panel) (Homo sapiens, UniProt Q6XUX3).
T1 sequence (Q6XUX3 1-929): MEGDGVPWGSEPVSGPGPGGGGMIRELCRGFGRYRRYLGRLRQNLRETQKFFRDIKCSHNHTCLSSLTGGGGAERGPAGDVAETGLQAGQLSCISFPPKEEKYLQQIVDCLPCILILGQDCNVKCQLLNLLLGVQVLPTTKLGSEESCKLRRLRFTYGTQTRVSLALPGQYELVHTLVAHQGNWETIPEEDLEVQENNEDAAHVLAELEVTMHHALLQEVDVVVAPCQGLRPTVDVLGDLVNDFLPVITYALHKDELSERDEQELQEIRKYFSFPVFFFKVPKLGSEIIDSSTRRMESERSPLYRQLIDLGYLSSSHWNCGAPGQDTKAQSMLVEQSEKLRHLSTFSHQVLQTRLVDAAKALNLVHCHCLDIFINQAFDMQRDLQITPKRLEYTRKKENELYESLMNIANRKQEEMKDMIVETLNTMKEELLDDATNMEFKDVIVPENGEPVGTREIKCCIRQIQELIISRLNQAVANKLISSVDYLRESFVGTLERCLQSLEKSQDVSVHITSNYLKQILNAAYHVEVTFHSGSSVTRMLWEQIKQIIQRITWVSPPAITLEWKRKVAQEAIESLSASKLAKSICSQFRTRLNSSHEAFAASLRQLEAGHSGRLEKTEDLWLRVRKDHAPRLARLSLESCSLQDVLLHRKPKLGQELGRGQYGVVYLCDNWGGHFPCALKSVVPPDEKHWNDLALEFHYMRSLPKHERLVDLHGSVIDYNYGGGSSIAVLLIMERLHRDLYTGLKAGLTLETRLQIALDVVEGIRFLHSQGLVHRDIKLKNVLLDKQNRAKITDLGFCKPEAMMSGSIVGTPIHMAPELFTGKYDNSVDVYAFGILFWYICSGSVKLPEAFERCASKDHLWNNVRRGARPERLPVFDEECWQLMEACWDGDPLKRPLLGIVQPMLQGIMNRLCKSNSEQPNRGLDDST
Particulars: DSTYK; Published KINOMEscan; ref original PKIS2 published data; cited from earlier work.

In data set [3] the target is T2, kinases (KINOMEscan panel) (Homo sapiens, UniProt O95835).
T2 sequence (O95835 1-1130): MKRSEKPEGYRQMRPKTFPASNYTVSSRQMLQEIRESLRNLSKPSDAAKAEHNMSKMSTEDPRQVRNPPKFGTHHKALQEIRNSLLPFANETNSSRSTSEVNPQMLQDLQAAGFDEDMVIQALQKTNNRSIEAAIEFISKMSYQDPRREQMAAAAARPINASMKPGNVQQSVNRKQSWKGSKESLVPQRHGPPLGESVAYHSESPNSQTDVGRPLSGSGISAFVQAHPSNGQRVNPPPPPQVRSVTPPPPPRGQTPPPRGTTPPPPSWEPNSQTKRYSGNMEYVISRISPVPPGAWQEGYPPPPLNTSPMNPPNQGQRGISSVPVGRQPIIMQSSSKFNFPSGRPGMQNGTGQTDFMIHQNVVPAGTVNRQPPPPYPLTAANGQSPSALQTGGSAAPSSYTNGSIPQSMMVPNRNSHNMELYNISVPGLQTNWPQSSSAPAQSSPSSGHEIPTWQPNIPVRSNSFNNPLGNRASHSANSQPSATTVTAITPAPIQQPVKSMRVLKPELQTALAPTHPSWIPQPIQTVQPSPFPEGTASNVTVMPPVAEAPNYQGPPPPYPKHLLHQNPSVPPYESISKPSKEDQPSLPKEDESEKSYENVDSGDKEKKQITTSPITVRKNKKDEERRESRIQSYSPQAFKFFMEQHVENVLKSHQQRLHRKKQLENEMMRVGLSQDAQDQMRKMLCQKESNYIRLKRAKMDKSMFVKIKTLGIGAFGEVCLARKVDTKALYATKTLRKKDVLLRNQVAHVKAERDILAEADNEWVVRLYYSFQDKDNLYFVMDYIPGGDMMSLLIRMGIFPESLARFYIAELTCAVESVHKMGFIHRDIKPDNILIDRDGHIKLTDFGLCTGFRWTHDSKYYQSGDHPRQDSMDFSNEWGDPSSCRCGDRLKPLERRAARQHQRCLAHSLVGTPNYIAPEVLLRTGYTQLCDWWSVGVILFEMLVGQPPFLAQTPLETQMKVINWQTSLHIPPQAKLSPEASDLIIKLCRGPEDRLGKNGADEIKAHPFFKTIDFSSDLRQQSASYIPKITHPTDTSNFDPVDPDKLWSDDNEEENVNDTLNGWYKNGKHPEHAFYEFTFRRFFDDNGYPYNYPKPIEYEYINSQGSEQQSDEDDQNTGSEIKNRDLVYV
Particulars: LATS1; Published KINOMEscan; ref original PKIS2 published data; cited from earlier work.

The target of data set [4] is T3, kinases (KINOMEscan panel) (Homo sapiens, UniProt Q9UPZ9).
T3 sequence (Q9UPZ9 1-632): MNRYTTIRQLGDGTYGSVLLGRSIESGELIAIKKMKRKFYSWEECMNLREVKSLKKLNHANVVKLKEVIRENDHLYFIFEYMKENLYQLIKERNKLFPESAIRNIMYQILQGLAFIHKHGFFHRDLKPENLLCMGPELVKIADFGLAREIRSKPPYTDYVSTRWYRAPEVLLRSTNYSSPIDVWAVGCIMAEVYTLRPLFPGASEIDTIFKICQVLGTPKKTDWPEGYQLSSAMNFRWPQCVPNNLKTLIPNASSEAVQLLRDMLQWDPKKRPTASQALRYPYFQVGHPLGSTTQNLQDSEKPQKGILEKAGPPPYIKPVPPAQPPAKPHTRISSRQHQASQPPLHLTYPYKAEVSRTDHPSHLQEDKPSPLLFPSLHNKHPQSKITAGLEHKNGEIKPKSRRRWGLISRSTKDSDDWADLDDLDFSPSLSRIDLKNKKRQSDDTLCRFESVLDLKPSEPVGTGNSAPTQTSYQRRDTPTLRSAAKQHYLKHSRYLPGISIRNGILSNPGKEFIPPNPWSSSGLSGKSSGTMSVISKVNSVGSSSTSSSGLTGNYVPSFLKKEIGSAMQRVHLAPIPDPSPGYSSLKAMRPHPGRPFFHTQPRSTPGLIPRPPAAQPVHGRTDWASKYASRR
To be noted: CILK1; Published KINOMEscan; ref original PKIS2 published data; cited from earlier work.

Chain of kinases (KINOMEscan panel) (Homo sapiens, UniProt Q13523) (Q13523 whole entry): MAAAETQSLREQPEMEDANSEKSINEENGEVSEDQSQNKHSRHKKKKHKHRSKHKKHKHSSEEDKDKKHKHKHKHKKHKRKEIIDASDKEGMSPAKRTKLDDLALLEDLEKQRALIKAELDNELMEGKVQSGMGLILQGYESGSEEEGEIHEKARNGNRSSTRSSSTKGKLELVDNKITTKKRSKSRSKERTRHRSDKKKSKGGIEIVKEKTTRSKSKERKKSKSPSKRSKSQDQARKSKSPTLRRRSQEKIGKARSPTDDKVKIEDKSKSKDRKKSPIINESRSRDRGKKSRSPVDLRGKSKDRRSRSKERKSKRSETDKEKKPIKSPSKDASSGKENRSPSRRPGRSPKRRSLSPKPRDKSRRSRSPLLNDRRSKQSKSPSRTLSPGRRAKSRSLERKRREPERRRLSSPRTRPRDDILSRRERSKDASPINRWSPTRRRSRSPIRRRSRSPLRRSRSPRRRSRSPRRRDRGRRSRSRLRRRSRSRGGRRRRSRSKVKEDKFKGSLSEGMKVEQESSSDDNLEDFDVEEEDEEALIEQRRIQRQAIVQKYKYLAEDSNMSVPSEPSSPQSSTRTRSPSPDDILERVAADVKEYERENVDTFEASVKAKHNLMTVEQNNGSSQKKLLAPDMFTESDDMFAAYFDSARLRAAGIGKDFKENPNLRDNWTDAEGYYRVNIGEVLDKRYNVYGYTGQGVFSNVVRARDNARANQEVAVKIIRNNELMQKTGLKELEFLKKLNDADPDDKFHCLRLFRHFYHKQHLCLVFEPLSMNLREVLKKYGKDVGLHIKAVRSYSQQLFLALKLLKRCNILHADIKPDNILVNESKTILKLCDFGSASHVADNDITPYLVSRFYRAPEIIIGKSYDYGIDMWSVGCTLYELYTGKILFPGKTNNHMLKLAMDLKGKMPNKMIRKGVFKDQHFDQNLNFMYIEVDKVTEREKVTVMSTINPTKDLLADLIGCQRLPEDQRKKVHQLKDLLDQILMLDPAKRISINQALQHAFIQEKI

In the case of `Cc1cccc(-c2nc(Nc3ccncc3)c3ccccc3n2)n1` [NK215], in data set [1], the “KINOMEscan PRPF4B” value is reported as 17. Also, the “KINOMEscan DSTYK” value in data set [2] is on record as 0. Besides, the “KINOMEscan LATS1” value in data set [3] was 3. Moreover, in data set [4], the “KINOMEscan CILK1” value is reported as 0.
